Measurements taken from patent US20260232572A1, “INJECTABLE COMPOSITION, PHARMACEUTICAL FORMULATION INCLUDING THE SAME, AND METHOD FOR PREPARING THE COMPOSITION” (ONCONIC THERAPEUTICS INC., priority 2023, published 2026).
Like-named read-outs stand apart in the source and are kept apart here.

Experiments:
[1] = Solubility of citrate of Compound 1 depending on pH; format: physicochemical
[2] = Bioavailability on oral administration, citrate of Compound 1 compared to free base; format: in vivo; conditions: orally administered

solubility ([1]; aqueous buffer, pH 3 or higher, particularly pH 3.3 or higher, read-out: solubility): < 1500 µg/mL
solubility ([1]; below pH 3): very excellent solubility
solubility ([1]; pH 3 to 4.7, due to SBE-β-CD): excellent solubility
AUC compared to Compound 1 free base [2]: at least five
Cmax compared to Compound 1 free base [2]: ≥ 11 times
SMILES: Cc1cccc(C)c1CNc1cc(C(=O)N2CCC2)cn2c(C)c(C)nc12.O=C(O)CC(O)(CC(=O)O)C(=O)O [citrate of Compound 1, azetidin-1-yl{8-[(2,6-dimethylbenzyl)amino]-2,3-dimethylimidazo[1,2-a]pyridin-6-yl}methanone citrate]
time to reach highest blood concentration ([2]; compared to Compound 1 free base): within a short time compared to Compound 1
